Test results: EP3970691A1, “SLIMMING COSMETIC COMPOSITIONS CONTAINING ONE OR MORE LIMONOIDS” (C.F.E.B. Sisley, priority 2020, dated 2022)

Key:
Type in all cases: cell-based
CERT [1] = target: T1, CERT (Mus musculus, UniProt Q9EQG9); assay: Dose-response on basal 3T3-L1: total ceramide assay (DAG kinase) as readout of CERT inhibition; conditions: 3T3-L1 in basal state, total ceramides; data not shown
T1 construct: endogenous in cells; host or cells: 3T3-L1
T1 sequence (Q9EQG9 1-624): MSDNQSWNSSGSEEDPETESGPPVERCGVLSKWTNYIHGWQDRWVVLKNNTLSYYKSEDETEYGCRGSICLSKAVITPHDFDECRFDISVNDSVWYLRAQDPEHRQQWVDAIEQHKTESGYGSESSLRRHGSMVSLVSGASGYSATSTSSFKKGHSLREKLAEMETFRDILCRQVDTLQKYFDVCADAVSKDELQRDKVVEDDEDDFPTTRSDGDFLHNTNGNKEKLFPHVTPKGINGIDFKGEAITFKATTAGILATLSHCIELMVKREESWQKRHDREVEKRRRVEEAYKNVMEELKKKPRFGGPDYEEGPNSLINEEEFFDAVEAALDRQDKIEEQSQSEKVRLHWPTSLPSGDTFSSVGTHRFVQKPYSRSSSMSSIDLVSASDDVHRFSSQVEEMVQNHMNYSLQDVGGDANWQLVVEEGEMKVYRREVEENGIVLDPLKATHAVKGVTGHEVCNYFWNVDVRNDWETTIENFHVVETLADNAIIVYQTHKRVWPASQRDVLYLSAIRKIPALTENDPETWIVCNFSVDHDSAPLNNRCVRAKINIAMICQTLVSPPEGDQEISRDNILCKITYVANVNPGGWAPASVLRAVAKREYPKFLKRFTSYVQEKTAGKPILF
Source text: (§1) Les taux de céramides dans les extraits de lipides cellulaires sont mesurés par la méthode enzymatique de la DAG kinase. Le principe de ce dosage est de phosphoryler les céramides avec de l'ATP radiomarqué grâce à l'action de cette enzyme, puis de quantifier les radiations obtenues pour chaque échantillons, permettant ainsi de doser la quantité totale de céramides présents initialement dans les échantillons. Les résultats sont exprimés en fmol de céramides et normalisés par rapport à la quantité de phospholipides totaux dans les échantillons, exprimée en nmol.
(§2) La quantité de phospholipides totaux contenue dans les extraits cellulaires est dosée afin de normaliser les céramides présents dans chaque échantillon. La quantité de phospholipides totaux est mesurée par spectrophotométrie : l'absorbance est mesurée à 660 nm, puis calculée grâce à une gamme de sodium phosphate dibasique (Sigma-Aldrich) permettant de déterminer la concentration en phosphates dans chaque échantillon.

CERT [2] = target: T1, CERT; assay: Total ceramides and sphingomyelins during 3T3-L1 differentiation under gedunin treatment
Procedure: (§3) Le protocole de différenciation se déroule en deux étapes : une phase d'induction (2 jours) suivie d'une étape d'accumulation (2 à 5 jours). • Milieu d'induction : Il s'agit du milieu d'entretien des 3T3-L1 supplémenté de 1µM d'Insuline; 1.25µM de Dexaméthasone et 250µM d' IBMX (3-isobutyl-1-methylxanthine) • Cocktail d'accumulation : Ce milieu est composé du milieu d'entretien des 3T3-L1 supplémenté de 1µM d'Insuline ;
Les lipides ont été extraits et les échantillons préparés pour la chromatographie liquide couplée à la spectrométrie de masse (cf. Bligh E.G. et al, 1959).
as §1, §2
Afin de déterminer si la GED est capable d'inhiber le transport des céramides du RE vers le Golgi au cours du processus de différenciation des 3T3-L1, ces cellules ont été mises en contact de la GED au cours des deux phases du protocole (Schéma 3). Puis les céramides totaux et les sphingomyélines ont été quantifiés (figure 2A).

3T3-L1 [3] = assay: RT-qPCR expression of adipogenesis and adipocyte function genes during 3T3-L1 differentiation
Procedure: as §3
(§4) L'extraction des ARNm à partir de ces échantillons est réalisée avec un kit RNeasy® Mini Kit, commercialisé par QIAGEN®.
(§5) La rétrotranscription des ARN extraits des échantillons en ADNc est réalisée selon le protocole suivant : les ARN sont incubés à 50°C pendant 30 minutes afin de réaliser la rétro-transcription des ARN en présence de la réversetranscriptase M-MLV; puis à 95°C pendant 15 minutes afin d'inhiber l'activité de la rétrotranscriptase, de dégrader les amorces d'ARN et d'activer la polymérase.
(§6) La PCR quantitative est réalisée dans Le LightCylcer 1.5 (Roche) grâce au kit FastStart DNA Master plus SYBR Green I (Roche).
(§7) L'inhibition de CERT, et donc de la synthèse de SM, par le traitement à la GED ayant été validée, la question a donc ensuite été de savoir si cela avait un effet sur la capacité de différenciation des cellules. Le même protocole de différenciation a donc été appliqué, associé ou non à un traitement à la Ged (figure 2A), et les niveaux d'expression de gènes impliqués d'une part dans l'adipogenèse et d'autre part dans la fonction adipocytaire ont été mesurés. Par ailleurs, les analyses transcriptomiques ont été combinées avec une analyse phénotypique des échantillons : un marquage à l'huile rouge, qui, en marquant les lipides, permet de visualiser les gouttelettes lipidiques dans les cellules et donc de savoir si celles-ci sont différenciées et fonctionnelles.
Les niveaux d'expression des gènes Pref1, comme marqueur pré-adipocytaire, ainsi que de PPARγ, C/EBPα et C/EBPδ qui sont des FT clés dans l'adipogenèse, ont été mesurés.

3T3-L1 [4] = assay: Oil Red staining of lipid droplets in 3T3-L1 (microscopy); conditions: AdJ7, 10µM in induction (GED1) or accumulation (GED2) phase
Source text: Afin de visualiser les gouttelettes lipidiques contenues dans les adipocytes matures et donc de quantifier le niveau de différenciation des cellules, les lipides sont marqués avec de l'huile rouge. L'huile rouge est un colorant liposoluble qui colore les lipides neutres et donc les triglycérides stockés dans les gouttelettes.
as §7

pré-adipocytes humains = assay: RT-qPCR gene expression in differentiating human pre-adipocytes; conditions: treated during induction phase
Procedure: Comme pour les 3T3-L1, le protocole de différenciation des PrAH se déroule en deux étapes : les cellules sont exposées à milieu d'induction puis à un milieu d'accumulation, ces deux phases durant 10 jours chacune.
Le milieu d'induction est composé du milieu d'entretien supplémenté de l'insuline à 1µM, de l'IBMX à 500µM, de la dexaméthasone à 1µM ainsi que de l'indométhacine à 200µM. Le milieu d'accumulation est quant à lui composé du milieu d'entretien auquel on ajoute de l'insuline à 1µM.
as §4, §5, §6
Dans un premier temps, les cellules ont donc été traitées avec de la Gédunine durant la phase d'induction. Le niveau d'expression de gènes impliqués dans l'adipogenèse et dans la fonction adipocytaire a été évalué. Dans un deuxième temps, les cellules ont été colorées avec de l'Huile Rouge afin de visualiser leur capacité à stocker des lipides au sein de leurs gouttelettes lipidiques.

3T3-L1 [5] = assay: Oil Red O neutral lipid quantification (spectrophotometry) in differentiating 3T3-L1; conditions: for quantité de lipides: vs control
Source text: Brièvement : Des cellules 3T3-L1 ont été ensemencés dans leur milieu d'entretien. A confluence, les cellules ont été mises au contact des produits à tester dans un milieu permettant la différentiation des pré-adipocytes en adipocytes via la présence d'un cocktail d'induction. A l'issue du contact, les lipides neutres stockés dans les gouttelettes lipidiques des adipocytes ont été marqués par la coloration Huile Rouge O. Les lipides neutres ont été extraits (extraction à l'isopropanol) et dosés par spectrophotométrie. Les densités optiques obtenues sont proportionnelles à la quantité de lipides.

[6] = GED1 and GED2, stage AdJ7, vs CTRL

For `CC(=O)O[C@@H]1C[C@H]2C(C)(C)C(=O)C=C[C@]2(C)[C@H]2CC[C@@]3(C)[C@H](c4ccoc4)OC(=O)[C@H]4O[C@]43[C@@]21C` [Gédunine, gédunine], the “dose de GED à partir de laquelle les céramides commencent à s'accumuler” value (CERT [1]) was at least 10 µM, the céramides totaux (CERT [2]; 3T3-L1, 10µM in induction phase, then control accumulation medium without GED) was “ne présentent pas d'accumulation des céramides” and the céramides totaux (CERT [2]; 3T3-L1, 10µM, AdJ2 treated in induction phase and AdJ7 treated in accumulation phase, vs control) was “accumulation des céramides significative”. The “accumulation de SM” value (CERT [2]; 3T3-L1, 10µM, after 5 days of accumulation, treatment in first or second step) was “diminuer significativement l'accumulation de SM”, the “quantité de SM” value (CERT [2]; 3T3-L1, 10µM, early stage, just before accumulation step) was “légère diminution de la quantité de SM, toutefois non significative” and the “expression de PPARγ” value (3T3-L1 [3]; 10µM in accumulation phase) was “diminution drastique de l'induction de l'expression de PPARγ”. The “expression de CD36, FAS, LPL et adiponectine” value (3T3-L1 [3]; 10µM in induction or accumulation phase, stages AdJ2 and AdJ7) was “diminue l'induction de l'expression de ces 4 gènes”, the “expression de PPARγ” value (3T3-L1 [3]; 10µM in induction phase, stages AdJ2 and AdJ7) was “diminution de cette induction de l'expression de PPARγ” and the “expression de C/EBPδ” value (3T3-L1 [3]; 10µM, stage AdJ2) was “semble diminuer, toutefois non-significativement”. The “expression de CD36, FAS, LPL et adiponectine” value (3T3-L1 [3]; AdJ7 GED2 (10µM in accumulation phase)) was “diminution drastique”, the “expression de Pref1” value (3T3-L1 [3]; GED1 (10µM in induction phase), stage AdJ2) was “diminue de la même manière que chez les CTRL” and the “expression de Pref1” value (3T3-L1 [3]; GED1 (10µM in induction phase), stage AdJ7) was “n'est plus réprimé”. For the same compound, the “expression de C/EBPα” value (3T3-L1 [3]; [6]) was “diminuée”, the “niveau d'expression de C/EBPδ” value (3T3-L1 [3]; [6]) was “significativement augmenté” and the “expression de Pref1” value (3T3-L1 [3]; GED2 (10µM in accumulation phase), stage AdJ7) was “identique à celle des CTRL”. The “marquage des lipides neutres par l'huile rouge” value (3T3-L1 [4]) was “ne sont plus marquées”, the “expression du marqueur pré-adipocytaire Pref1” value (pré-adipocytes humains; CTRL vs GED) was “aucune différence significative” and the “expressions de AdipoQ, FAS et LPL” value (pré-adipocytes humains; vs CTRL) was “diminution des expressions de AdipoQ, FAS et LPL”. For the same compound, the “induction de l'expression de PPARγ” value (pré-adipocytes humains; vs CTRL) was “fortement diminuée”.

For `CC1(C)O[C@H]2CC(=O)OC[C@]23[C@H]2CC[C@@]4(C)[C@H](c5ccoc5)OC(=O)[C@H]5O[C@]54[C@]2(C)C(=O)C[C@@H]13` [Limonine, limonine], the “% variation versus contrôle” value (3T3-L1 [5]; Limonine 10µM) was -10%, the “Moyenne ± écart type (Densité optique à 490nm)” value (3T3-L1 [5]; Limonine 10µM) was 0,492 ± 0,061 and the “% variation versus contrôle” value (3T3-L1 [5]; Limonine 2OµM) was -16,5%. The “Moyenne ± écart type (Densité optique à 490nm)” value (3T3-L1 [5]; Limonine 2OµM) was 0,455 ± 0,037, the cytotoxicité (3T3-L1 [5]; limonin experiment, tested concentrations (10 and 20 µM)) was “Aucune cytotoxicité” and the quantité de lipides (3T3-L1 [5]; limonin experiment) was “baisse dose dépendante de la quantité de lipides”. The quantité de lipides (3T3-L1 [5]; mandarin extract experiment) was “baisse dose dépendante de la quantité de lipides”.
